From article PMC11851448, “Meliponini Geopropolis Extracts Induce ROS Production and Death in Leishmania amazonensis Promastigotes and Axenic Amastigotes In Vitro” (Biology, 2025)

Biological target: T1, LiARG (recombinant arginase from L. infantum) (Leishmania infantum, UniProt A4IB49)
T1 construct: gene LINJ_35_1490; recombinant, purified
Test: urea release, colorimetric UREA CE kit, […] nm
Type: biochemical

O=c1c(O)c(-c2ccc(O)c(O)c2)oc2cc(O)cc(O)c12 [quercetin] showed an IC50 of 23.2 µM.
